Values joined by “and” are separate entries in the source; they are usually repeats but may differ in a detail not shown here. Equal values may be shown once.
Legend:
Format in all cases: biochemical, L. rhizosphaerae NEAU-A2
KnmB1 = test: NADPH oxidation of KnmB1 and variants (340 nm); conditions: KnmB1 + compound
Experimental: Hydrogen peroxide formation assay and NADPH oxidation […]
(§1) NADPH detection was carried out in the cuvette by NanoDrop 2000c (Fisher Scientific). NADPH signal at 340 nm was monitored in time using 6220 M–1 cm–1 as […]
(§2) Spectral data for new compounds […]
Reaction conditions: 50 mM Tris-HCl buffer (pH 7.5), 0.15 mM NADPH, and 2 μM KnmB1 or KnmB2. (e) NADPH oxidation of KnmB1 and variants. (f) NADPH oxidation of KnmB1 in the presence 24/32/36. (g) NADPH oxidation of KnmB1 and variants in the presence 24. Reaction conditions (e-g) for KnmB1 and their variants: 50 mM Tris-HCl buffer (pH 7.5), 0.15 mM NADPH, and 6 μM KnmB1 or variants, or 0.1 mM substrate 24/32/36. […]
2 μM KnmB2 or variants, or 0.1 mM substrate 24/32. […]
Source data are provided as a Source Data file. […]

KnmB2 [1] = test: NADPH oxidation of KnmB2 and variants (340 nm)
Experimental: (§3) Hydrogen peroxide formation assay and NADPH oxidation
(§4) The hydrogen peroxide formed from KnmB1, KnmB2 and their variants were measured using the Hydrogen Peroxide Assay Kit (Beyotime Industrial Co. Ltd, Shanghai, China)4-5. 5–100 µL of enzyme reaction mixture was added to 100 µL of working reagent (S0038-1). The mixture was incubated for 30 min at 25 °C, at which time the absorbance at 560 nm was measured by NanoDrop 2000c (Fisher Scientific). The level of H2O2 was calculated according to a standard concentration curve from standard […]
as §1, §2
Reaction conditions: 50 mM Tris-HCl buffer (pH 7.5),
0.15 mM NADPH, and 2 μM KnmB1 or KnmB2. […]
(§5) μM KnmB1 or variants, or 0.1 mM substrate 24/32/36. (h) NADPH oxidation of KnmB2 and variants. (i) NADPH oxidation of KnmB2 and variants in the presence 24 or 32. (j) H2O2 generation for KnmB2 and variants in the presence 24 or 32. Reaction conditions (h-j) for KnmB2 and their variants: 50 mM Tris-HCl buffer (pH 7.5), 0.15 mM NADPH, 2 μM KnmB2 or variants, or 0.1 mM substrate 24/32. Values are the means ± SD of n = 3 independent experiments, except for KnmB2+24 (T = 40 min), KnmB2-N219D+24 (T = 4 min), KnmB2-Y215F+24 (T= 1 min and 3 min) in i and j, and KnmB2+32 (T= 8 min) in j (n = 2). Source data are provided as a Source Data file. […]

KnmB2 [2] = test: Hydrogen peroxide formation assay of KnmB2 and variants
Experimental: as §3
as §4, with “Scientific).” for “Scientific). The level of H2O2 was calculated according to a standard concentration curve from standard”
as §2
Supplementary Figure 131. H2O2 generation and NADPH oxidation for KnmB2, KnmB1 and their variants. (a) Hydrogen peroxide formation of KnmB2 and variants. […]
(1 picture or pasted object on this page, not shown here) […]
as §5, with “H2O2” for “μM KnmB1 or variants, or 0.1 mM substrate 24/32/36. (h) NADPH oxidation of KnmB2 and variants. (i) NADPH oxidation of KnmB2 and variants in the presence 24 or 32. (j) H2O2”

COc1cc(C(N)=O)nc(-c2csc(CCCCC(C)C)n2)c1 [Compound 32]
NADPH oxidation of KnmB1 in the presence of compound (replicates 1, 2, 3) (KnmB1; Time 0): 0.0000 µM
NADPH oxidation of KnmB1 in the presence of compound, average value (KnmB1; Time 0): 0.0000 µM
NADPH oxidation of KnmB1 in the presence of compound (replicates 1, 2, 3) (KnmB1; Time 1): 1.5273 µM and 2.1061 µM and 2.0418 µM
NADPH oxidation of KnmB1 in the presence of compound, average value (KnmB1; Time 1): 1.8918 µM
NADPH oxidation of KnmB1 in the presence of compound (replicates 1, 2, 3) (KnmB1; Time 2): 1.8328 µM and 3.1029 µM and 1.2701 µM
NADPH oxidation of KnmB1 in the presence of compound, average value (KnmB1; Time 2): 2.0686 µM
NADPH oxidation of KnmB1 in the presence of compound (replicates 1, 2, 3) (KnmB1; Time 3): 2.5241 µM and 3.7621 µM and 2.2026 µM
NADPH oxidation of KnmB1 in the presence of compound, average value (KnmB1; Time 3): 2.8296 µM
NADPH oxidation of KnmB1 in the presence of compound (replicates 1, 2, 3) (KnmB1; Time 4): 3.7781 µM and 5.3698 µM and 2.4759 µM
NADPH oxidation of KnmB1 in the presence of compound, average value (KnmB1; Time 4): 3.8746 µM
NADPH oxidation of KnmB1 in the presence of compound (replicates 1, 2, 3) (KnmB1; Time 5): 4.0032 µM and 5.5627 µM and 2.3955 µM
NADPH oxidation of KnmB1 in the presence of compound, average value (KnmB1; Time 5): 3.9871 µM
NADPH oxidation of KnmB1 in the presence of compound (replicates 1, 2, 3) (KnmB1; Time 8): 4.4212 µM and 7.7974 µM and 3.6978 µM
NADPH oxidation of KnmB1 in the presence of compound, average value (KnmB1; Time 8): 5.3055 µM
NADPH oxidation of KnmB1 in the presence of compound (replicates 1, 2, 3) (KnmB1; Time 10): 5.8360 µM and 8.6174 µM and 5.4019 µM
NADPH oxidation of KnmB1 in the presence of compound, average value (KnmB1; Time 10): 6.6184 µM
NADPH oxidation of KnmB1 in the presence of compound (replicates 1, 2, 3) (KnmB1; Time 15): 7.9100 µM and 11.8971 µM and 10.3055 µM
NADPH oxidation of KnmB1 in the presence of compound, average value (KnmB1; Time 15): 10.0375 µM
NADPH oxidation of KnmB1 in the presence of compound (replicates 1, 2, 3) (KnmB1; Time 20): 9.0836 µM and 14.3891 µM and 16.4148 µM
NADPH oxidation of KnmB1 in the presence of compound, average value (KnmB1; Time 20): 13.2958 µM
NADPH oxidation of KnmB1 in the presence of compound (replicates 1, 2, 3) (KnmB1; Time 30): 13.7942 µM and 22.5402 µM and 24.0193 µM
NADPH oxidation of KnmB1 in the presence of compound, average value (KnmB1; Time 30): 20.1179 µM
NADPH oxidation of KnmB1 in the presence of compound (replicates 1, 2, 3) (KnmB1; Time 40): 17.5724 µM and 28.7299 µM and 26.9936 µM
NADPH oxidation of KnmB1 in the presence of compound, average value (KnmB1; Time 40): 24.4319 µM
NADPH oxidation of KnmB1 in the presence of compound (replicates 1, 2, 3) (KnmB1; Time 60): 24.1801 µM and 36.1576 µM and 36.4791 µM
NADPH oxidation of KnmB1 in the presence of compound, average value (KnmB1; Time 60): 32.2722 µM
stimulation of the reaction of KnmB2 with NADPH (KnmB2 [1]; 0.15 mM NADPH, 2 μM KnmB2, 0.1 mM compound (Fig. S131i, j)): could dramatically stimulate the reaction of KnmB2 with NADPH
NADPH oxidation, average value (KnmB2 [1]; KnmB2+32, Time 0): 0.0000 µM
NADPH oxidation, average value (KnmB2 [1]; KnmB2+32, Time 1): 36.1736 µM
NADPH oxidation, average value (KnmB2 [1]; KnmB2+32, Time 2): 67.6313 µM
NADPH oxidation, average value (KnmB2 [1]; KnmB2+32, Time 3): 89.9250 µM
NADPH oxidation, average value (KnmB2 [1]; KnmB2+32, Time 4): 104.0193 µM
NADPH oxidation, average value (KnmB2 [1]; KnmB2+32, Time 5): 113.9871 µM
NADPH oxidation, average value (KnmB2 [1]; KnmB2+32, Time 8): 126.0986 µM
NADPH oxidation, average value (KnmB2 [1]; KnmB2+32, Time 10): 129.3140 µM
NADPH oxidation, average value (KnmB2 [1]; KnmB2+32, Time 15): 133.2797 µM
NADPH oxidation, average value (KnmB2 [1]; KnmB2+32, Time 20): 134.8875 µM
NADPH oxidation, average value (KnmB2 [1]; KnmB2+32, Time 30): 135.6377 µM
NADPH oxidation, average value (KnmB2 [1]; KnmB2+32, Time 60): 137.7278 µM
hydrogen peroxide formation of KnmB2 (absorbance UV λ=560 nm), average value (KnmB2 [2]; Fig. S131a, 1 mM NADPH, 16 μM KnmB2, 0.1 mM compound, 30 °C, 3 h, average of 3): 0.3257
H2O2 generation, average value (KnmB2 [2]; KnmB2+32, Time 0): 0.0000 µM
H2O2 generation, average value (KnmB2 [2]; KnmB2+32, Time 1): 27.0071 µM
H2O2 generation, average value (KnmB2 [2]; KnmB2+32, Time 2): 45.8172 µM
H2O2 generation, average value (KnmB2 [2]; KnmB2+32, Time 3): 50.8645 µM
H2O2 generation, average value (KnmB2 [2]; KnmB2+32, Time 4): 59.9799 µM
H2O2 generation, average value (KnmB2 [2]; KnmB2+32, Time 5): 63.9929 µM
H2O2 generation, average value (KnmB2 [2]; KnmB2+32, Time 8): 70.1572 µM
H2O2 generation, average value (KnmB2 [2]; KnmB2+32, Time 10): 68.2817 µM
H2O2 generation, average value (KnmB2 [2]; KnmB2+32, Time 15): 68.3920 µM
H2O2 generation, average value (KnmB2 [2]; KnmB2+32, Time 20): 65.9649 µM
H2O2 generation, average value (KnmB2 [2]; KnmB2+32, Time 30): 69.8125 µM
H2O2 generation, average value (KnmB2 [2]; KnmB2+32, Time 60): 64.9169 µM
